Data on one molecule can be found in US20130079370A1, “Method for the Inhibition of Deubiquitinating Activity” (priority 2011, published 2013).

The structures appear in SMILES notation.

Data set [1] relates to isogenic clones of HCT116 colon cancer cells. Particulars: literature refs (11, 12); cited from earlier work.
Another data set relates to HCT116 cells. The format is cell-based. The settings on record: human. The source says: These findings indicate that high molecular weight ubiquitin substrate complexes accumulating as a result of DUB inhibition can generate strong cytotoxicity that is insensitive to Bcl-2 over-expression. [table]

On to `CC(C)C[C@H](NC(=O)[C@H](Cc1ccccc1)NC(=O)c1cnccn1)B(O)O` [bortezomib, reference compound], for which the “sensitivity of apoptosis induction to apoptosis regulators” value in data set [1] was “sensitive to the status of the p53 tumor suppressor and over-expression of the anti-apoptotic Bcl-2 oncoprotein”. Also, in the data set on HCT116 cells, the “Fold induction DNAJB1 (Hsp40B1)” value turned out to be 5 fold, the “Fold induction HSPA1B” value worked out at 12 fold and the “Fold induction HSPA6 (Hsp70B′)” value came to 60 fold.
